Source: US6407076B1, “Adenosine analogues and related method of treatment” (SmithKline Beecham Corporation, priority 1997, dated 2002)

Experiments:
[1] = biological target: T1, human adenosine A1 receptor (Homo sapiens, UniProt P30542); test: Reporter gene (CRE/SPAP) agonist assay in CHO cells, adenosine A1 receptor; format: cell-based; conditions: CHO cells with human A1 receptor; inhibition of forskolin-stimulated SPAP production; potency relative to NECA=1
T1 construct: expressed in transfected cells; host or cells: Chinese hamster ovary (CHO) cells containing CRE/SPAP/HYG reporter elements
T1 sequence (P30542 1-326): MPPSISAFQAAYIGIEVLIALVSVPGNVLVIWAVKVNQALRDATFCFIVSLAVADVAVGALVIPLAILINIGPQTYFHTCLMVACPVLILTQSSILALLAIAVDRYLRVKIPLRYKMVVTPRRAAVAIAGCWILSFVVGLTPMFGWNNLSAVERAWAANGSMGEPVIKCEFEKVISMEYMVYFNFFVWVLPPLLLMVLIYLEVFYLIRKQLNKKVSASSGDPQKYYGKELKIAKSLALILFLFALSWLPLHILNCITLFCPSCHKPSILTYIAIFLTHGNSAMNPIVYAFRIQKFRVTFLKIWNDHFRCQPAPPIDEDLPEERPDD
Method: Agonist activity was measured in Chinese hamster ovary (CHO) cells containing the CRE/SPAP/HYG (CRE=cyclic AMP response element; HYG=hygromycin resistance; SPAP=secreted placental alkaline phosphatase) reporter gene elements, which upon stimulation of cAMP levels produced SPAP. A cell line was used, which was stably transfected with either the human adenosine A1 receptor or the human adenosine A3 receptor in addition to the above elements. Cells were plated out in 96-well plates in culture medium and incubated at 37° C. for 1 hour. […] All cells were then incubated for a further 5 hours at 37° C., and cooled to room temperature, after which a substrate for the phosphatase (para-nitrophenol phosphate, pNPP), which is converted by SPAP to a coloured reagent) was then added and the 96-well plates were read in a plate reader. From these readings, the concentration-dependence of the inhibition by the agonist for forskolin-stimulated SPAP production can be calculated.
(ECR=equipotent concentration ratio relative to NECA=1)

[2] = biological target: T2, human adenosine A3 receptor (Homo sapiens, UniProt P0DMS8); test: Reporter gene (CRE/SPAP) agonist assay in CHO cells, adenosine A3 receptor; conditions: CHO cells with human A3 receptor; inhibition of forskolin-stimulated SPAP production; potency relative to NECA=1
T2 sequence (P0DMS8 1-318): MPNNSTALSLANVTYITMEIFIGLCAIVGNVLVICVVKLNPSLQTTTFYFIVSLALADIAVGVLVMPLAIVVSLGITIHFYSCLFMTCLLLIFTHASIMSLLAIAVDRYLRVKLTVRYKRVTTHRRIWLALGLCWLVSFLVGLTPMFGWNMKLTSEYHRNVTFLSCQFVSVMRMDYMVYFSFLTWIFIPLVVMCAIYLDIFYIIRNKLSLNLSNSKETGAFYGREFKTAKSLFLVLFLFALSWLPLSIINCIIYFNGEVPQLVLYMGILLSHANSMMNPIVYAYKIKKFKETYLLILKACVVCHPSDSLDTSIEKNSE

SMILES	A1 ECR (equipotent concentration ratio relative to NECA=1) [1]	melting point [°C]	A3 ECR (equipotent concentration ratio relative to NECA=1) [2]
O[C@@H]1[C@H](O)[C@@H](COC(F)(F)F)O[C@H]1n1cnc2c(Nc3cccc(F)c3)ncnc21 [Example 15, N-(3-Fluoro-phenyl)-5′-O-trifluoromethyl-adenosine]	23.2		
O[C@@H]1[C@H](O)[C@@H](COCC(F)(F)F)O[C@H]1n1cnc2c(N[C@@H]3CCC[C@H]3O)ncnc21 [Example 8, N-(2R-Hydroxy-cyclopent-(R)-yl)-5′-O-(2,2,2-trifluoro-ethyl)-adenosine]	239.40		
O[C@@H]1[C@H](O)[C@@H](COCC(F)(F)F)O[C@H]1n1cnc2c(NC3CCCC3)ncnc21 [Example 6, N-Cyclopentyl-5′-O-(2,2,2-trifluoro-ethyl)-adenosine]	8.70	74 to 76	7.7
O[C@@H]1[C@H](O)[C@@H](COCC(F)(F)F)O[C@H]1n1cnc2c(Nc3ccc(F)cc3)ncnc21 [Example 9, N-(4-Fluoro-phenyl)-5′-O-(2,2,2-trifluoro-ethyl)-adenosine]	298		19.7
OCC(O)CNc1ncnc2c1ncn2[C@@H]1O[C@H](COC(F)(F)F)[C@@H](O)[C@H]1O (relative stereo) [Example 20, N-(rel-2,3-Dihydroxy-propyl)-5′-O-trifiuoromethyl-adenosine]	24.10		284.5
O[C@@H]1[C@H](O)[C@@H](COC(F)(F)F)O[C@H]1n1cnc2c(NC3CCSCC3)ncnc21 [Example 13, N-(Tetrahydro-thiopyran-4-yl)-5′-O-trifluoromethyl-adenosine]	11.1		>276
CC(C)(C)Nc1ncnc2c1ncn2[C@@H]1O[C@H](COC(F)(F)F)[C@@H](O)[C@H]1O [Example 17, N-tert-Butyl-5′-O-trifiuoromethyl-adenosine]			>207
O=S1(=O)CCC(Nc2ncnc3c2ncn3[C@@H]2O[C@H](COC(F)(F)F)[C@@H](O)[C@H]2O)CC1 [Example 16, N-(1,1-Dioxo-hexahydro-1δ6-thiopyran-4-yl)-5′-O-trifluoromethyl-adenosine]	79.50		>207
O[C@@H]1[C@H](O)[C@@H](COC(F)(F)F)O[C@H]1n1cnc2c(N[C@@H]3CCOC3)ncnc21 [Example 21, N-(Tetrahydro-furan-3R-yl)-5′-O-trifluoromethyl-adenosine]			>175
O[C@@H]1[C@H](O)[C@@H](COC(F)(F)F)O[C@H]1n1cnc2c(N[C@H]3CCOC3)ncnc21 [Example 22, N-(Tetrahydro-furan-3S-yl)-5′-O-trifluoromethyl-adenosine]			>63
CCOC(=O)N1CCC(Nc2ncnc3c2ncn3[C@@H]2O[C@H](COC(F)(F)F)[C@@H](O)[C@H]2O)CC1 [Example 18, 4-[9-(3R,4S-Dihydroxy-5R-trifluoromethoxymethyl-tetrahydro-furan-2R-yl)-9H-purin-6-ylamino]-piperidine-1-carboxylic Acid Ethyl Ester]	5.32		>202
O[C@@H]1[C@H](O)[C@@H](COC(F)(F)F)O[C@H]1n1cnc2c(NC3CCOCC3)ncnc21 [Example 1, N-(Tetrahydro-pyran-4-yl)-5′-O-trifluoromethyladenosine]	8.40		>129
CC(=O)NCCNc1ncnc2c1ncn2[C@@H]1O[C@H](COC(F)(F)F)[C@@H](O)[C@H]1O [Example 23, N-{2-[9-(3R,4S-Dihydroxy-5R-trifluoromethoxymethyl-tetrahydro-furan-2R-yl)-9H-purin-6-ylamino]-ethyl}-acetamide]	12.52		>175
Cc1nc(NC2CCOCC2)c2ncn([C@@H]3O[C@H](COC(F)(F)F)[C@@H](O)[C@H]3O)c2n1 [Example 25, 2-Methyl N-(tetrahydro-pyran-4-yl)-5′-O-trifluoromethyl-adenosine]	32		
O[C@@H]1[C@H](O)[C@@H](COC(F)(F)F)O[C@H]1n1cnc2c(N[C@H]3CCC[C@@H]3O)ncnc21 [Example 19, N-(2S-Hydroxy-cyclopent-(S)-yl)-5′-O-trifluoromethyl-adenosine]			>150
O[C@@H]1[C@H](O)[C@@H](COC(F)(F)F)O[C@H]1n1cnc2c(Nc3ccc(F)c(F)c3)ncnc21 [Example 14, N-(3,4-Difluoro-phenyl)-5′-O-trifluoromethyl-adenosine]	20.50		197.3
O[C@@H]1[C@H](O)[C@@H](COC(F)(F)F)O[C@H]1n1cnc2c(NC3CC4CCC3C4)ncnc21 (stereo partly drawn) [Example 3, N-(exo-Bicyclo[2.2.1]hept-2-yl)-5′-O-trifluoromethyl-adenosine]			143.5
CNS(=O)(=O)CCNc1ncnc2c1ncn2[C@@H]1O[C@H](COC(F)(F)F)[C@@H](O)[C@H]1O [Example 5, 2-[9-(3R,4S-Dihydroxy-5R-trifluoromethoxymethyl-tetrahydro-furan-2R-yl)-9H-purin-6-ylamino]-ethanesulfonic Acid Methylamide]	33.2		>212
O[C@@H]1[C@H](O)[C@@H](COC(F)(F)F)O[C@H]1n1cnc2c(NCCc3ccncc3)ncnc21 [Example 2, N-(2-Pyridin-4-yl-ethyl)-5′-O-trifluoromethyladenosine]	185.5		
O[C@@H]1[C@H](O)[C@@H](COC(F)(F)F)O[C@H]1n1cnc2c(N[C@H]3CCC[C@@H]3F)ncnc21 [Example 12, N-(2S-Fluoro-cyclopent-(S)-yl)-5′-O-trifluoromethyl-adenosine]			>226
Nc1ncnc2c1ncn2[C@@H]1O[C@H](COC(F)(F)F)[C@@H](O)[C@H]1O [Example 4, 5′-O-Trifluoromethyladenosine]	80.7		81.6
CCOC(=O)N1CCC(Nc2nc(C)nc3c2ncn3[C@@H]2O[C@H](COC(F)(F)F)[C@@H](O)[C@H]2O)CC1 [Example 24, 4-[9-(3R,4S-Dihydroxy-5R-trifluoromethoxymethyl-tetrahydro-furan-2R-yl)-2-methyl-9H-purin-6-ylamino]-piperidine-1-carboxylic Acid Ethyl Ester]	51.70		>134
